Measured values from patent US20120053239A1, “TREATMENT FOR INTESTINAL GAS, BLOATING, MICROSCOPIC COLITIS, INFLAMMATORY BOWEL DISEASE AND TRAVELER'S DIARRHEA USING COLLOIDAL BISMUTH SUBCITRATE” (priority 2006, published 2012).

Legend:
[1] = 20 clinical studies, more than 5000 patients; cited from earlier work
[2] = Inventor's clinical experience: CBS in patients with severe flatus passage and gastrointestinal discomfort after nonabsorbable carbohydrates; assay type: in vivo, human; settings: six patients; CBS 125 mg, 1 or 2 capsules per day or twice a day for one to two days
Description: (§1) The inventor has specific clinical experience with the use of CBS. Six patients who had episodic both severe flatus passage and gastrointestinal discomfort after the consumption of large quantities of nonabsorbable carbohydrates were treated with CBS obtained from a compounding pharmacy. […] A single dose of CBS 125 mg was administered to a dog with excessive and bothersome gas following a large meal including table food.

[3] = Single dose of CBS in a dog with excessive gas after a large meal; assay type: in vivo; settings: single dose of CBS 125 mg
Description: as §1

[4] = CBS in one patient with symptomatic microscopic colitis; assay type: in vivo, human; settings: CBS 600 mg three times daily for one month
[5] = cited from earlier work

Compound	side effects compared with ranitidine alone [1]	acute symptoms of excess of gas passage [2]	toxic effects [2]	flatus after administration [3]	symptoms of microscopic colitis [4]	safety of use in nonulcer dyspepsia ([5]; 480 mg of CBS daily for 8 weeks)	serum bismuth levels after ingestion ([5]; up to 480 mg per day of CBS for more than 4 weeks)
CNC(=C[N+](=O)[O-])NCCSCc1ccc(CN(C)C)o1.O=C([O-])CC(O)(CC(=O)[O-])C(=O)[O-].[Bi+3] [ranitidine bismuth citrate]	no different than those seen with ranitidine alone						
colloidal bismuth subcitrate [CBS]		completely eliminated all of acute symptoms	No toxic effects were noted	Complete session of flatus	complete resolution of symptoms	safe use	safe serum bismuth levels
